According to patent US10780174B2, “Lipid-linked prodrugs” (The University of British Columbia, priority 2015, dated 2020):

Tests used:
OVCAR3 cells = experiment: In vitro growth inhibition by LD-DTX prodrugs, cell viability assay; format: cell-based; details: for IC50: Homo sapiens, OVCAR-3, 48 h, Ovcar3 cells
Experimental: OVCAR3 cells were obtained from ATCC (Manassas, Va.). Cells were seeded at 12,000 cells per well on 96-well plates and treated with free docetaxel, prodrugs, lipid nanoparticle formulations with or without prodrugs at 0 to 15 μM of docetaxel for 48 h. Cell viability was determined by a colorimetric assay, based on the tetrazolium salt MIT (3-(4,5-dimethylthiazol-2-yl)-2,5-diphenyltetrazolium bromide), as described previously [Mossman 1983].

[1] = Particle size and polydispersity of LNP containing prodrug (dynamic light scattering); format: physicochemical; details: PDI in brackets
Experimental: (§1) Preparation of LNP Systems: PC-Chol LNP systems were prepared by rapidly mixing POPC, cholesterol, lipid-linked prodrug and PEG-DMPE (in molar ratio of 49/39/10/2) dissolved in ethanol with phosphate-buffered saline using a T-junction mixer. Formulations were dialyzed against phosphate-buffered saline to remove residual ethanol and to raise the pH to 7.4. PC-TO and ionizable LNP systems were prepared in the same way except that the lipid compositions for these systems are: POPC, triolein, lipid-linked prodrug and PEG-DSPE (in molar ration of 19/70/10/1), and ionizable lipid, DSPC, cholesterol, lipid-linked prodrug and PEG-DMPE (in molar ration of 40/10/38.5/10/1.5), respectively.
Characterization of LNP: Particle size was determined by dynamic light scattering using a Malvern Zetasizer Nano ZS™ (Malvern, UK) following buffer exchange into phosphate-buffered saline. Number-weighted size and distribution data was used. Lipid concentrations were determined by measuring total cholesterol using the Cholesterol E enzymatic assay kit from Wako Chemicals USA™ (Richmond, Va.). The morphology of LNP formulations containing LD-DEX was analyzed by cryogenic-transmission electron microscopy (cryoTEM) as described previously [Leung et al. (2012)].

[2] = Prodrug incorporation (entrapment) in lipid nanoparticles, UHPLC; format: physicochemical
Experimental: as §1
(§2) Quantitation of prodrugs by HPLC: LD-DEX/DTX were quantified by ultra high-pressure liquid chromatography (UHPLC) using a Waters Acquity™ UPLC system equipped with a photodiode array detector (PDA) and evaporative light scattering (ELS) detector; Empower™ data acquisition software version 3.0 was used (Waters™, USA). Separations were performed using a Waters Acquity™ BEH C18 column (1.7 μm, 2.1×100 mm) at a flow rate of 0.5 ml/min, with mobile phases A and B consisting of methanol/10 mM ammonium bicarbonate (80/20% v/v) and methanol/acetonitrile (80/20% v/v), respectively. The mobile phases were delivered at a programmed linear gradient (45%-80% B in 1 min then to 99% B at 2 min) at a column temperature of 55° C. The analyte was measured by PDA (at a wavelength of 239 nm) and ELS detector against calibration standard curves. For the analysis of LD-DEX/DTX breakdown to active compound, linear gradients of 20/80% to 100/0% (acetonitrile/water, v/v) over 7 min were used.

[3] = In vitro degradation of lipid-linked prodrugs in LNP, mouse plasma; format: in vitro ADME; details: LNP; for prodrug cleavage/degradation after 1 h in plasma: 37° C., mouse plasma
Experimental: as §2
To determine the biodegradability of the dexamethasone or docetaxel prodrugs (LD-DEX/DTX), 1 mg/mL LNP was incubated in mouse plasma (Cedarlane™, Burlington, Ontario) or PBS supplemented with 10 U of purified esterase (Sigma-Aldrich™, St. […] Post incubation, four volumes of chloroform/methanol (2:1) was added and the mixture was vortex mixed. Samples were centrifuged at 13,000 g for 5 minutes and the upper phase was discarded. The remaining organic phase was dried down under vacuum and the resulting lipid extract was dissolved in methanol/acetonitrile (1:1). Quantity of parent LD-DEX/DTX compound was determined by ultra high pressure liquid chromatography on a Waters Acquity™ H-Class UPLC System™ equipped with a BEH C18 column and a photodiode array detector.

[4] = tested on: immunostimulatory effects of LNP-CpG (plasma cytokines); experiment: In vivo immune suppression by LD-DEX prodrugs, LNP-CpG model; parameters: species or system C57Bl/6 mice; details: mice, i.v., 10 mg/kg of CpG, 2 h post injection
Experimental: 6-8 Weeks old female C57Bl/6 mice (Charles River Laboratories™, Wilmington, Mass.) were injected intravenously with lipid nanoparticles containing CpG DNA oligonucleotides (10 mg/kg), mRNA (3 mg/kg) or plasmid DNA (pDNA) (1 mg/kg). Animals were euthanized 2 hours post-injection and blood was collected via intracardiac or saphenous sampling. Plasma was separated from whole blood by centrifugation and analyzed for proinflammatory cytokines using the Mesoscale Proinflammatory Multiplex™ kit (Rockville, Md.) according to manufacturer's instruction. All procedures were approved by the Animal Care Committee at the University of British Columbia and were performed in accordance with guidelines established by the Canadian Council on Animal Care.

[5] = tested on: IL1β expression in RAW 264.7 mouse macrophage cells; experiment: In vitro immune suppression, LPS-treated RAW 264.7 cells, IL1β qRT-PCR; format: cell-based; details: 2 ng/mL LPS, 4 h
Experimental: RAW 264.7 mouse macrophage cells were seeded at 250,000 cells per mL on 12-well plates and incubated at 37° C. overnight. Lipopolysaccharide (LPS) was dissolved in phosphate buffered saline at a concentration of 2 μg/ml. Cells were treated with lipid nanoparticles containing LD-DEX prodrugs and 2 ng/ml of LPS for 4 hours. This LPS concentration was chosen due to its ability to increase IL1β expression approximately 1000 times as compared to untreated cells. At the end of the incubation period, culture medium was aspirated and cellular RNA was extracted using the Purelink RNA™ extraction kit according to manufacturer's protocol (Life Technologies™, Burlington, ON). The concentration of extracted RNA was determined using a Nanodrop Lite™ (Thermo Fisher™). 1 μg of RNA was converted to cDNA using the High Capacity cDNA Reverse Transcription kit (Life Technologies™, Burlington, ON). In order to validate the sample preparation, a no template control and a negative reverse transcriptase control were included. The cDNA was then quantified using comparative real-time qPCR where the Ct (threshold cycle) values are converted to relative quantity using the 2-ΔΔCT method. The primer-probe sets were designed to bind to cDNA of Interleukin-1β(IL1β). Hypoxanthine-guanine phosphoribosyltransferase (HPRT) was chosen as the endogenous normalizer gene, which is known to maintain consistent levels with varying treatments.

[6] = tested on: purified porcine esterase; experiment: In vitro degradation of lipid-linked prodrugs in LNP, purified esterase in PBS; details: LNP, 24 h incubation
[7] = LD-DEX prodrug in ionizable LNP
[8] = LD-DTX prodrug in ionizable LNP

In the case of `CC(=O)O[C@@]12CO[C@@H]1C[C@H](O)[C@@]1(C)C(=O)[C@H](O)C3=C(C)[C@@H](OC(=O)[C@H](O)[C@@H](NC(=O)OC(C)(C)C)c4ccccc4)C[C@@](O)([C@@H](OC(=O)c4ccccc4)[C@H]21)C3(C)C` [Docetaxel, reference compound], the “suppression of cancer cell proliferation / IC50 comparison (in words)” value (OVCAR3 cells; OVCAR3, 0 to 15 μM of docetaxel, 48 h) is reported as “much lower than all the other test articles”.
With `CCCCC/C=C\C/C=C\CCCCCCCC(=O)OC(COC(=O)CCC(=O)OCC(=O)[C@@]1(O)[C@H](C)C[C@H]2[C@@H]3CCC4=CC(=O)C=C[C@]4(C)[C@@]3(F)[C@@H](O)C[C@@]21C)CN(C)C` (some centres unmarked) [LD01-DEX] the “Particle size (PDI) PC-Chol LNP” value ([1]; LD-DEX prodrug in PC-Chol LNP) was 77 (0.06) nm, the “Particle size (PDI) [ionizable LNP]” value [1, 7] was “[51 (0.04)] nm” and the “% Entrapment PC-Chol LNP” value ([2]; LD-DEX prodrug in PC-Chol LNP) was 72%. For the same compound, the “% Entrapment [ionizable LNP]” value [2, 7] was “[65] %”, the “input amount incorporated into the final lipid nanoparticle preparation” value ([2]; of the input amount) was 65-72 mol % and the “prodrug cleavage/degradation after 1 h in plasma” value (“prodrug cleavage/degradation” for short) [3] was “significant cleavage”. For the same compound, the “plasma TNFα and KC/GRO levels versus control LNP-CpG” value [4] was “marked reduction in cytokine levels”.
For `CCCCC/C=C\C/C=C\CCCCCCCCOCCCCSCC(=O)[C@@]1(O)[C@H](C)C[C@H]2[C@@H]3CCC4=CC(=O)C=C[C@]4(C)[C@@]3(F)[C@@H](O)C[C@@]21C` [LD07-DEX, (8S,9R,10S,11S,13S,14S,16R,17R)-9-fluoro-11,17-dihydroxy-10,13,16-trimethyl-17-(2-((4-(linoleyloxy)butyl)thio)acetyl)-6,7,8,9,10,11,12,13,14,15,16,17-dodecahydro-3H-cyclopenta[a]phenanthren-3-one], the “Particle size (PDI) PC-Chol LNP” value ([1]; LD-DEX prodrug in PC-Chol LNP) was 56 (0.03) nm, the “Particle size (PDI) [ionizable LNP]” value [1, 7] was “[47 (0.04)] nm” and the “% Entrapment PC-Chol LNP” value ([2]; LD-DEX prodrug in PC-Chol LNP) was 90%. For the same compound, the “% Entrapment [ionizable LNP]” value [2, 7] was “[88] %”, the “prodrug cleavage/degradation” value [3] was “no degradation” and the “plasma TNFα and KC/GRO levels versus control LNP-CpG” value [4] was “did not exhibit any immunosuppressive effects”. For the same compound, the “IL1β expression versus control LNP without prodrug” value [5] was “IL1β expression at a similar level to control”.
With `CCCCC/C=C\C/C=C\CCCCCCCC(=O)OCC(COC(=O)CCC(=O)O[C@@H](C(=O)O[C@H]1C[C@@]2(O)[C@@H](OC(=O)c3ccccc3)[C@@H]3[C@]4(OC(C)=O)CO[C@@H]4C[C@H](O)[C@@]3(C)C(=O)[C@H](O)C(=C1C)C2(C)C)[C@@H](NC(=O)OC(C)(C)C)c1ccccc1)OC(=O)CCCCCCC/C=C\C/C=C\CCCCC` (stereo partly drawn) [LD10-DTX, (2R,3S)-1-(((2aR,4S,4aS,6R,9S,11S,12S,12aR,12bS)-12b-acetoxy-12-(benzoyloxy)-4,6,11-trihydroxy-4a,8,13,13-tetramethyl-5-oxo-2a,3,4,4a,5,6,9,10,11,12,12a,12b-dodecahydro-1H-7,11-methanocyclodeca[3,4]benzo[1,2-b]oxet-9-yl)oxy)-3-((tert-butoxycarbonyl)amino)-1-oxo-3-phenylpropan-2-yl (2,3-bis((9Z,12Z)-octadeca-9,12-dienoyloxy)propyl) succinate] the “Particle size (PDI) PC-Chol LNP” value ([1]; LD-DTX prodrug in PC-Chol LNP) was 58 (0.06) nm, the “Particle size (PDI) [ionizable LNP]” value [1, 8] was “[42 (0.06)] nm” and the “% Entrapment PC-Chol LNP” value ([2]; LD-DTX prodrug in PC-Chol LNP) was 95%. For the same compound, the “% Entrapment [ionizable LNP]” value [2, 8] was “[100] %”, the “prodrug cleavage/degradation” value [3] was “largely not degraded” and the IC50 (OVCAR3 cells; Free drugs) was 156 nM. The IC50 (OVCAR3 cells; PC-Chol LNP) was 374 nM, the IC50 (OVCAR3 cells; PC-TO LNP) was 791 nM and the IC50 (OVCAR3 cells; ionizable LNP) was 133 nM.
In the case of `CCCCCCCCCCCCCC(=O)OCC(COC(=O)CCC(=O)O[C@@H](C(=O)O[C@H]1C[C@@]2(O)[C@@H](OC(=O)c3ccccc3)[C@@H]3[C@]4(OC(C)=O)CO[C@@H]4C[C@H](O)[C@@]3(C)C(=O)[C@H](O)C(=C1C)C2(C)C)[C@@H](NC(=O)OC(C)(C)C)c1ccccc1)OC(=O)CCCCCCCCCCCCC` (stereo partly drawn) [LD22-DTX, (2R,3S)-1-(((2aR,4S,4aS,6R,9S,11S,12S,12aR,12bS)-12b-acetoxy-12-(benzoyloxy)-4,6,11-trihydroxy-4a,8,13,13-tetramethyl-5-oxo-2a,3,4,4a,5,6,9,10,11,12,12a,12b-dodecahydro-1H-7,11-methanocyclodeca[3,4]benzo[1,2-b]oxet-9-yl)oxy)-3-((tert-butoxycarbonyl)amino)-1-oxo-3-phenylpropan-2-yl (2,3-bis(tetradecanoyloxy)propyl) succinate], the “Particle size (PDI) PC-Chol LNP” value ([1]; LD-DTX prodrug in PC-Chol LNP) is reported as 65 (0.04) nm, the “Particle size (PDI) [ionizable LNP]” value [1, 8] is reported as “[39 (0.07)] nm” and the “% Entrapment PC-Chol LNP” value ([2]; LD-DTX prodrug in PC-Chol LNP) is reported as 93%. The “% Entrapment [ionizable LNP]” value [2, 8] was “[100] %”, the “prodrug cleavage/degradation” value [3] was “largely not degraded” and the “release of active drug (UPLC chromatogram) in mouse plasma” value ([3]; 24 h incubation) was “active docetaxel (DTX) was observed”. For the same compound, the IC50 (OVCAR3 cells; Free drugs) was 51.7 nM, the IC50 (OVCAR3 cells; PC-Chol LNP) was about 1550 nM and the IC50 (OVCAR3 cells; PC-TO LNP) was 315 nM. For the same compound, the IC50 (OVCAR3 cells; ionizable LNP) was 93 nM and the “release of active drug (UPLC chromatogram) in purified esterase” value [6] was “active docetaxel (DTX) was observed”.
With `CCCCCCCC/C=C\CCCCCCCC(=O)OCC(COC(=O)CCC(=O)O[C@@H](C(=O)O[C@H]1C[C@@]2(O)[C@@H](OC(=O)c3ccccc3)[C@@H]3[C@]4(OC(C)=O)CO[C@@H]4C[C@H](O)[C@@]3(C)C(=O)[C@H](O)C(=C1C)C2(C)C)[C@@H](NC(=O)OC(C)(C)C)c1ccccc1)OC(=O)CCCCCCC/C=C\CCCCCCCC` (stereo partly drawn) [LD23-DTX, (2R,3S)-1-(((2aR,4S,4aS,6R,9S,11S,12S,12aR,12bS)-12b-acetoxy-12-(benzoyloxy)-4,6,11-trihydroxy-4a,8,13,13-tetramethyl-5-oxo-2a,3,4,4a,5,6,9,10,11,12,12a,12b-dodecahydro-1H-7,11-methanocydodeca[3,4]benzo[1,2-b]oxet-9-yl)oxy)-3-((tert-butoxycarbonyl)amino)-1-oxo-3-phenylpropan-2-yl (2,3-bis(oleoyloxy)propyl) succinate] the “Particle size (PDI) PC-Chol LNP” value ([1]; LD-DTX prodrug in PC-Chol LNP) was 60 (0.05) nm, the “Particle size (PDI) [ionizable LNP]” value [1, 8] was “[39 (0.06)] nm” and the “% Entrapment PC-Chol LNP” value ([2]; LD-DTX prodrug in PC-Chol LNP) was 100%. For the same compound, the “% Entrapment [ionizable LNP]” value [2, 8] was “[100] %”, the “prodrug cleavage/degradation” value [3] was “largely not degraded” and the IC50 (OVCAR3 cells; Free drugs) was 64.5 nM. The IC50 (OVCAR3 cells; PC-Chol LNP) was about 15600 nM, the IC50 (OVCAR3 cells; PC-TO LNP) was 692 nM and the IC50 (OVCAR3 cells; ionizable LNP) was 99.9 nM.
